Experimental data: article PMC11303713, “Allosteric inhibition of CFTR gating by CFTRinh-172 binding in the pore” (Nature Communications, 2024)
Entries after “also recorded” stand apart in the source; their conditions may differ.

How the values were obtained:
[1] = tested on: E1371Q- and W1145Y/E1371Q-CFTR; assay: Intracellular SCN- blockade, I-V voltage ramps on excised patch; assay type: cell-based; conditions: 2 mM or 10 mM cytoplasmic SCN-
From the text: Also, Sonawane and Verkman
(2008), which carried out a structure-activity relationship study, could have been considered to understand whether the moieties of CFTRinh-172 that were found important for inhibitory activity correspond to interactions with specific parts of CFTR protein.
We thank the reviewer for pointing this out. Now, these two papers are both cited, and their contents are incorporated into the 2nd and 10th paragraph of the Discussion.
4) As a control, a CFTR inhibitor having a completely different structure could have been used to check that potency was not affected by mutagenesis.
Most CFTR inhibitors block CFTR pore from the cytoplasmic side in a voltage-dependent manner, such as glibenclamide (Sheppard and Robinson, 1997), NPPB (Walsh et al., 1999), and DNDS (Linsdell and Hanrahan, 1996). Since these CFTR inhibitors likely block the open channel by traveling down the internal vestibule to the narrow region of the pore, the mutations introduced to the Inh-172’s binding site, which is just below the narrow region, would inevitably affect the actions of these CFTR blockers. […]
Comparison of intracellular SCN- blockade on E1371Q- and W1145Y/E1371Q-CFTR. […] Fraction of block was calculated according to the equation “Fraction of block = 1 – (ISCN)/I0” where ISCN and I0 represent the blocked and unblocked current at a given voltage on the same patch. […]

[2] = tested on: "lock-opened" CFTR with dimerized NBDs; set-up: method as in Zhou et al., 2002; conditions: ref Zhou et al., 2002; cited from earlier work

| Compound | potency of SCN- (fraction of block), E1371Q- vs W1145Y/E1371Q-CFTR [1] | off-rate [2] |
| --- | --- | --- |
| N#CS [SCN-, thiocyanate] | barely affected; also recorded: does not differ |  |
| COc1ccc(Cl)cc1C(=O)NCCc1ccc(S(=O)(=O)NC(=O)NC2CCCCC2)cc1 [glibenclamide] |  | ~ 10 s-1 |
